Laboratory results reported in patent publication US11415579B2, “Assay for measuring a rate of reaction between a target and a ligand candidate” (Imperial College Innovations Ltd., priority 2016, dated 2022).

Columns and labels:
[1] = Kinetic thiol consumption assay with model thiol glutathione; assay type: physicochemical; set-up: Rate constant with glutathione (k(GSH)): unit not given here; details: for Rate constant with glutathione (k(GSH)): 500 μM ligand, 5 μM thiol, phosphate buffer pH 8; for Rate constant with Glutathione: Protein: Glutathione, cysteine position NA, in h-1
Summary of the method: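 GSH 5 μM, degassed phosphate buffer pH 8, TCEP beads 2% v/v; acrylamide added; RT, 1 h; fluorescence ex/em 380/470 nm; normalized to DMSO/thiol control; k from first-order exponential decay fit.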

[2] = target: T1, human cyclin-dependent kinase 2 (Cdk2) (Homo sapiens, UniProt P24941); assay: Kinetic thiol consumption assay with wild type Cdk2 (C177); assay type: binding; set-up: key to Rate enhancement, Cdk2 WT: k(Cdk2) divided by k(model thiol); Rate constant with Cdk2 (k(Cdk2)): unit not given here; details: for Rate constant with Cdk2 (k(Cdk2)): 500 μM ligand, 5 μM thiol, phosphate buffer pH 8; for Rate enhancement, Cdk2 WT: no additional mutations; for Rate constant with Cdk2 WT: Protein: Cdk2, cysteine position WT, in h^-1; for k(Cdk2)/k(Cdk2_mut) rate enhancement: model thiol Cdk2[C177A, F80C, K278C]; for k(Cdk2)/k(GSH) rate enhancement: model thiol glutathione
T1 construct: poly-histidine; made in house; host or cells: E. coli
Summary of the method: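 His-tagged human Cdk2 (single surface cysteine C177), expressed in E. coli, or a model thiol at 5 μM in degassed phosphate buffer pH 8 was pre-treated with immobilized TCEP beads (2% v/v) before acrylamide addition. Fluorescence (ex/em 380/470 nm) was read after 1 h at room temperature, normalized to DMSO/thiol-only control and plotted versus time.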

[3] = target: T2, Cdk2[C177A, F80C, K278C] (Homo sapiens, UniProt P24941, C177A/F80C/K278C); assay: Kinetic thiol consumption assay with mutant Cdk2 as model thiol; assay type: binding; set-up: unit not given here; details: 500 μM ligand, 5 μM thiol, phosphate buffer pH 8
T2 construct: poly-histidine; made in house; host or cells: E. coli
Summary of the method: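 First-order rate constants were derived by exponential-decay fitting of DMSO/thiol-normalized fluorescence (380/470 nm) over time at room temperature. Thiol was 5 μM E. coli-expressed His-tagged Cdk2 mutant C177A/F80C/K278C in degassed pH 8 phosphate buffer containing 2% v/v TCEP beads.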

[4] = target: T3, Cdk2(C177A, F80C) (Homo sapiens, UniProt P24941, C177A/F80C); assay: Kinetic thiol consumption assay with Cdk2 mutant F80C, incl. kobs versus concentration (Kd, k2); assay type: binding; set-up: key to Rate enhancement, Cdk2 F80C: Cdk2 rate constant divided by model-thiol rate constant; details: additional mutation C177A; for Rate constant with Cdk2 F80C: Protein: Cdk2, cysteine position F80C, in h^-1
T3 construct: poly-histidine; made in house; host or cells: E. coli
Summary of the method: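 His-tagged Cdk2(C177A/F80C) from E. coli or model thiol, 5 μM in degassed phosphate buffer pH 8 with TCEP beads, reacted with acrylamide ligands; fluorescence (ex/em 380/470 nm) normalized to DMSO control and fitted to first-order decay for kobs. Kd and k2 obtained from hyperbolic fit of kobs versus ligand concentration.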

[5] = target: T4, Cdk2(H71C) (C177A) (Homo sapiens, UniProt P24941, C177A/H71C); assay: Kinetic thiol consumption assay with Cdk2 mutant H71C; assay type: binding; set-up: key to Rate enhancement, Cdk2 H71C: rate constant with Cdk2 ÷ rate constant with model thiol (fold); details: additional mutation C177A; for Rate constant with Cdk2 H71C: Protein: Cdk2, cysteine position H71C, in h^-1
T4 construct: poly-histidine; made in house; host or cells: E. coli
Summary of the method: (§1)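 Read-out is fluorescence at 380/470 nm, taken after 1 h at room temperature and normalized to a DMSO/thiol-only control over time. Thiol (5 μM Cdk2 mutant or model thiol) was in degassed pH 8 phosphate buffer with 2% v/v TCEP beads. Acrylamide rate constants for Cdk2 were divided by those with model thiol.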

[6] = target: T5, Cdk2(S276C) (C177A) (Homo sapiens, UniProt P24941, C177A/S276C); assay: Kinetic thiol consumption assay with Cdk2 mutant S276C; assay type: binding; set-up: key to Rate enhancement, Cdk2 S276C: rate constant with Cdk2 ÷ rate constant with model thiol (fold); details: additional mutation C177A; for Rate constant with Cdk2 S276C: Protein: Cdk2, cysteine position S276C, in h^-1
T5 construct: poly-histidine; made in house; host or cells: E. coli
Summary of the method: as §1

[7] = target: T6, Cdk2(N272C) (C177A) (Homo sapiens, UniProt P24941, C177A/N272C); assay: Kinetic thiol consumption assay with Cdk2 mutant N272C; assay type: binding; set-up: key to Rate enhancement, Cdk2 N272: rate constant with Cdk2 ÷ rate constant with model thiol (fold); details: for Rate enhancement, Cdk2 N272: Cdk2 N272, additional mutation C177A; for Rate constant with Cdk2 N272C: Protein: Cdk2, cysteine position N272C, additional mutation C177A, in h^-1
T6 construct: poly-histidine; made in house; host or cells: E. coli
Summary of the method: as §1

[8] = target: T7, Cdk2(T182C) (C177A) (Homo sapiens, UniProt P24941, C177A/T182C); assay: Kinetic thiol consumption assay with Cdk2 mutant T182C; assay type: binding; set-up: key to Rate enhancement, Cdk2 T182C: rate constant with Cdk2 ÷ rate constant with model thiol (fold); details: additional mutation C177A; for Rate constant with Cdk2 T182C: Protein: Cdk2, cysteine position T182C, in h^-1
T7 construct: poly-histidine; made in house; host or cells: E. coli
Summary of the method: as §1

[9] = target: T8, Cdk2(R122C) (C177A) (Homo sapiens, UniProt P24941, C177A/R122C); assay: Kinetic thiol consumption assay with Cdk2 mutant R122C; assay type: binding; set-up: key to Rate enhancement, Cdk2 R122C: rate constant with Cdk2 ÷ rate constant with model thiol (fold); details: additional mutation C177A; for Rate constant with Cdk2 R122C: Protein: Cdk2, cysteine position R122C, in h-1
T8 construct: poly-histidine; made in house; host or cells: E. coli
Summary of the method: as §1

[10] = target: T9, Cdk2(S181C) (C177A) (Homo sapiens, UniProt P24941, C177A/S181C); assay: Kinetic thiol consumption assay with Cdk2 mutant S181C; assay type: binding; set-up: key to Rate enhancement, Cdk2 S181C: rate constant with Cdk2 ÷ rate constant with model thiol (fold); details: additional mutation C177A; for Rate constant with Cdk2 S181C: Protein: Cdk2, cysteine position S181C, in h^-1
T9 construct: poly-histidine; made in house; host or cells: E. coli
Summary of the method: as §1

C=CC(=O)N1CCOC2(CCCCC2)C1 [CA-193]
Rate constant with glutathione (k(GSH)) [1]: 0.02378 | Rate constant with Glutathione [1]: 0.02785 | Rate constant with Cdk2 (k(Cdk2)) [2]: 0.02444 | Rate enhancement, Cdk2 WT [2]: 0.8776 | Rate constant with Cdk2 WT [2]: 0.02444 | k(Cdk2)/k(Cdk2_mut) rate enhancement [2]: 2.308 | k(Cdk2)/k(GSH) rate enhancement [2]: 1.028 | Rate constant with Cdk2[C177A, F80C, K278C] (k(Cdk2_mut)) [3]: 0.01059 | Rate enhancement, Cdk2 F80C [4]: 1.419 | Rate constant with Cdk2 F80C [4]: 0.03952 | Rate enhancement, Cdk2 H71C [5]: 1.842 | Rate constant with Cdk2 H71C [5]: 0.05131 | Rate enhancement, Cdk2 S276C [6]: 1.379 | Rate constant with Cdk2 S276C [6]: 0.03841 | Rate enhancement, Cdk2 N272 [7]: 0.8528 | Rate constant with Cdk2 N272C [7]: 0.02375 | Rate enhancement, Cdk2 T182C [8]: 3.878 | Rate constant with Cdk2 T182C [8]: 0.108 | Rate enhancement, Cdk2 R122C [9]: 0.6093 | Rate constant with Cdk2 R122C [9]: 0.01697 | Rate enhancement, Cdk2 S181C [10]: 0.4083 | Rate constant with Cdk2 S181C [10]: 0.01137

C=CC(=O)Nc1ccc(C23CC4CC(CC(O)(C4)C2)C3)cc1 [CA-194]
Rate constant with glutathione (k(GSH)) [1]: 0.00306 | Rate constant with Glutathione [1]: 0.004494 | Rate constant with Cdk2 (k(Cdk2)) [2]: 0.00505 | Rate enhancement, Cdk2 WT [2]: 1.123 | Rate constant with Cdk2 WT [2]: 0.005049 | k(Cdk2)/k(Cdk2_mut) rate enhancement [2]: 0.3625 | k(Cdk2)/k(GSH) rate enhancement [2]: 1.651 | Rate constant with Cdk2[C177A, F80C, K278C] (k(Cdk2_mut)) [3]: 0.01393 | Rate enhancement, Cdk2 F80C [4]: 0.9911 | Rate constant with Cdk2 F80C [4]: 0.004454 | Rate enhancement, Cdk2 H71C [5]: 0 | Rate enhancement, Cdk2 S276C [6]: 0.7641 | Rate constant with Cdk2 S276C [6]: 0.003434 | Rate enhancement, Cdk2 N272 [7]: 0.2125 | Rate constant with Cdk2 N272C [7]: 0.0009551 | Rate enhancement, Cdk2 T182C [8]: 10.72 | Rate constant with Cdk2 T182C [8]: 0.04819 | Rate enhancement, Cdk2 R122C [9]: 0.7287 | Rate constant with Cdk2 R122C [9]: 0.003275 | Rate enhancement, Cdk2 S181C [10]: 0.6985 | Rate constant with Cdk2 S181C [10]: 0.003139

C=CC(=O)NC1CC(NC(=O)C2CCC2)C1 (centres unmarked) [CA-202]
Rate constant with glutathione (k(GSH)) [1]: 0.00506 | Rate constant with Glutathione [1]: 0.007805 | Rate constant with Cdk2 (k(Cdk2)) [2]: 0.00543 | Rate enhancement, Cdk2 WT [2]: 1.211 | Rate constant with Cdk2 WT [2]: 0.009448 | k(Cdk2)/k(Cdk2_mut) rate enhancement [2]: 4.114 | k(Cdk2)/k(GSH) rate enhancement [2]: 1.074 | Rate constant with Cdk2[C177A, F80C, K278C] (k(Cdk2_mut)) [3]: 0.00132 | Rate enhancement, Cdk2 F80C [4]: 0.2601 | Rate constant with Cdk2 F80C [4]: 0.00203 | Rate enhancement, Cdk2 H71C [5]: 0 | Rate enhancement, Cdk2 S276C [6]: 0.3503 | Rate constant with Cdk2 S276C [6]: 0.002734 | Rate enhancement, Cdk2 N272 [7]: 0.6405 | Rate constant with Cdk2 N272C [7]: 0.004999 | Rate enhancement, Cdk2 T182C [8]: 2.301 | Rate constant with Cdk2 T182C [8]: 0.01796 | Rate enhancement, Cdk2 R122C [9]: 0.2272 | Rate constant with Cdk2 R122C [9]: 0.001773 | Rate enhancement, Cdk2 S181C [10]: 1.095 | Rate constant with Cdk2 S181C [10]: 0.008545

C=CC(=O)N1CC(OCc2cccc3ccccc23)C1 [CA-203]
Rate constant with glutathione (k(GSH)) [1]: 0.01382 | Rate constant with Glutathione [1]: 0.01374 | Rate constant with Cdk2 (k(Cdk2)) [2]: 0.04586 | Rate enhancement, Cdk2 WT [2]: 3.338 | Rate constant with Cdk2 WT [2]: 0.04586 | k(Cdk2)/k(Cdk2_mut) rate enhancement [2]: 0.5803 | k(Cdk2)/k(GSH) rate enhancement [2]: 3.318 | Rate constant with Cdk2[C177A, F80C, K278C] (k(Cdk2_mut)) [3]: 0.07903 | Rate enhancement, Cdk2 F80C [4]: 4.306 | Rate constant with Cdk2 F80C [4]: 0.05916 | Rate enhancement, Cdk2 H71C [5]: 3.672 | Rate constant with Cdk2 H71C [5]: 0.05046 | Rate enhancement, Cdk2 S276C [6]: 3.934 | Rate constant with Cdk2 S276C [6]: 0.05406 | Rate enhancement, Cdk2 N272 [7]: 2.758 | Rate constant with Cdk2 N272C [7]: 0.0379 | Rate enhancement, Cdk2 T182C [8]: 13.92 | Rate constant with Cdk2 T182C [8]: 0.1913 | Rate enhancement, Cdk2 R122C [9]: 3.287 | Rate constant with Cdk2 R122C [9]: 0.04516 | Rate enhancement, Cdk2 S181C [10]: 8.879 | Rate constant with Cdk2 S181C [10]: 0.122

C=CC(=O)N1CC2CN(Cc3ccccc3)CC2C1 (centres unmarked) [CA-207]
Rate constant with glutathione (k(GSH)) [1]: 0.00972 | Rate constant with Glutathione [1]: 0.01696 | Rate constant with Cdk2 (k(Cdk2)) [2]: 0.00578 | Rate enhancement, Cdk2 WT [2]: 0.3633 | Rate constant with Cdk2 WT [2]: 0.006162 | k(Cdk2)/k(Cdk2_mut) rate enhancement [2]: 5.219 | k(Cdk2)/k(GSH) rate enhancement [2]: 0.5947 | Rate constant with Cdk2[C177A, F80C, K278C] (k(Cdk2_mut)) [3]: 0.00111 | Rate enhancement, Cdk2 F80C [4]: 0.1388 | Rate constant with Cdk2 F80C [4]: 0.002354 | Rate enhancement, Cdk2 H71C [5]: 0 | Rate enhancement, Cdk2 S276C [6]: 0.1692 | Rate constant with Cdk2 S276C [6]: 0.00287 | Rate enhancement, Cdk2 N272 [7]: 0.3358 | Rate constant with Cdk2 N272C [7]: 0.005695 | Rate enhancement, Cdk2 T182C [8]: 0.921 | Rate constant with Cdk2 T182C [8]: 0.01562 | Rate enhancement, Cdk2 R122C [9]: 0.3602 | Rate constant with Cdk2 R122C [9]: 0.006109 | Rate enhancement, Cdk2 S181C [10]: 0.2075 | Rate constant with Cdk2 S181C [10]: 0.003519
